Test results as given in patent US20140271926A1, “METHODS OF USE OF GLUTAMINE SYNTHETASE INHIBITORS” (CALIFORNIA INSTITUTE OF TECHNOLOGY, priority 2013, published 2014).
Residues, ends and D or L forms follow the SMILES beside them. *: point of attachment. Cbz = O=C(OCc1ccccc1)*

What was measured:
[1] = tested on: glutamine synthetase (GS); test: Western blot of endogenous GS level in MM.1S cells; type: cell-based, human; settings: for steady-state level of GS: MM.1S cells, 2 mM glutamine, FIG. 5
Protocol: The consequences of IMiD-enhanced ubiquitylation of GS on endogenous GS levels and stability in MM.1S cells were evaluated. […] The IMiD-triggered decline in GS protein was not due to a reduction in the mRNA level of GS (FIGS. 5 and 6). If IMiDs were added immediately after changing the growth medium, the suppression of GS was more profound, with a maximal effect seen at 0.1 μM pomalidomide (4-amino-thalidomide) (FIG. 7). […] To determine if IMiDs were affecting the stability of GS, cycloheximide chase experiments were performed. As known in the art, GS is an unstable protein (FIG. 9). […] The lenalidomide-induced downregulation of GS was blocked by the proteasome inhibitor MG132 (FIG. 11). Additionally, the lenalidomide-induced downregulation of GS was blunted upon depletion of CRBN by shRNA (FIG. 12).
Western blot analysis. […] After washing twice with ice-cold PBS, the cells were lysed in RIPA buffer (50 mM Tris-HCl, 150 mM NaCl, 1% Triton X-100, 1% Sodium deoxycholate, 0.1% SDS, [pH 7.5]) supplemented with complete protease inhibitor (Roche). Whole-cell protein extracts were prepared and quantified by the Bradford method (Bio-Rad, Hercules, Calif.). Equal amounts of protein (20-80 μg/lane) were electrophoretically separated on SDS-PAGE and transferred to a PVDF membrane. The membranes were blotted with indicated antibodies. Anti-rabbit or anti-mouse antibodies conjugated to horseradish peroxidase (Vector Labs) were used as secondary antibodies, and the signal was detected using a Super Signal West Pico Substrate kit (Fisher Scientific).

[2] = tested on: FlagGS; test: In vivo ubiquitylation assay of FlagGS in HEK293T cells; type: cell-based, human; settings: MG132 10 μM 3 hours, FIG. 13A
Text: As mentioned above, GS is moderately unstable even in the absence of IMiDs. Specifically, seven lysine residues of GS are modified with ubiquitin in proteasome-inhibited cells, and modification of five of these sites is reduced upon inhibition of CRL activity with the NEDD8 conjugation inhibitor MLN4924. (Kim et al., 2011, Mol Cell., 44:325 and Emanuele et al., 2011, Cell, 147:459, the entire contents of both of which are herein incorporated by reference.) As such, the idea that the constitutive ubiquitylation and degradation of GS may be dependent on CRL4^CRBN was tested. In co-transfection assays, ^HAubiquitin was incorporated into ^FlagGS as determined by immunoprecipitation of ^FlagGS followed by immunoblotting with anti-HA (FIG. 13A). Additionally, ubiquitin-modified ^FlagGS accumulated in cells in which the proteasome was inhibited with the proteasome inhibitor MG132, but was almost entirely absent upon depletion of endogenous CRBN (depletion of CRBN was confirmed by immunoblot; FIG. 13B). […]
In vivo ubiquitylation assay. […] IP washing steps were performed using IP lysis buffer supplemented with 0.5 M NaCl Immunoprecipitated proteins were resolved by SDS/PAGE and analyzed by immunoblotting.

[3] = tested on: endogenous GS; test: TUBE2 pull-down of ubiquitin conjugates, HEK293T cells; type: cell-based, human; settings: 3 hours, FIG. 4; for GS ubiquitin conjugates: lenalidomide 30 μM or MG132 10 μM
Protocol: TUBE (Tandem Ubiquitin Binding Entities) Pull-down. […] The cells were lysed in immunoprecipitation buffer (10 mM Tris [pH 7.5], 150 mM NaCl, 1% Triton X-100) containing a protease inhibitor cocktail, MG132 and 10 mM N-ethylmaleimide (NEM, Sigma). Whole-cell protein extracts were incubated with 20 μl of TUBE2 agarose beads (Boston Biochem) for 2-4 hours with rotation at 4° C. Beads were washed 3-5 times with lysis buffer, and bound proteins were eluted in SDS sample buffer and subjected to Western blot analysis.

[4] = tested on: GS; settings: five of seven ubiquitin-modified lysine sites; proteasome-inhibited cells; cited from earlier work
[5] = clinical; cited from earlier work
[6] = tested on: MM.1S cells; test: Immunoblot of apoptosis biomarkers (cleaved caspase-3, PARP) in MM.1S cells; type: cell-based, human; settings: low concentrations of pomalidomide; 0.5 mM glutamine 72 hours; FIG. 26
Protocol: Since the physiological concentration of glutamine in human plasma is 0.5 mM (not the 2 mM that is typically used in cell cultures), the impact of GS depletion on cells grown in 0.5 mM glutamine was evaluated. Cells transduced with GS shRNA-3 in 2 mM glutamine for 7 days and then the cells were shifted to 0.5 mM glutamine.
If IMiDs modulate the level of multiple proteins that are critical for proliferation of myeloma cells, then restoring any one protein would not be expected to allow proliferation in the presence of IMiDs. By contrast, it was reasoned that if degradation of GS contributes to the anti-myeloma effect of IMiDs, that reduction of GS levels by shRNA knockdown would enhance the effect of IMiDs at sub-saturating concentrations, resulting in enhanced efficacy. […]
Western blot analysis. […] Whole-cell protein extracts were prepared and quantified by the Bradford method (Bio-Rad, Hercules, Calif.). […] Anti-rabbit or anti-mouse antibodies conjugated to horseradish peroxidase (Vector Labs) were used as secondary antibodies, and the signal was detected using a Super Signal West Pico Substrate kit (Fisher Scientific).

With `CC(C)C[C@@H](C=O)NC(=O)[C@H](CC(C)C)NC(=O)[C@H](CC(C)C)NC(=O)OCc1ccccc1` [MG132] (Cbz-Leu-Leu-Leu-aldehyde) the “lenalidomide-induced downregulation of GS in presence of proteasome inhibitor” value ([1]; MM.1S, 0.5 μM MG132, 100 μM lenalidomide, FIG. 11) was “blocked”, the “ubiquitin-modified FlagGS” value [2] was “accumulated” and the GS ubiquitin conjugates [3] was “increase”.

For `NS(=O)(=O)OC[C@@H]1C[C@@H](n2ccc3c(N[C@H]4CCc5ccccc54)ncnc32)C[C@@H]1O` [MLN4924], the “ubiquitin modification of GS lysine residues” value [4] is given as “reduced”.

For `Nc1cccc2c1CN(C1CCC(=O)NC1=O)C2=O` (stereo not shown) [lenalidomide], the Cmax [5] is given as about 1500 nM, the “steady-state level of GS” value ([1]; 24 hours) is given as “marked, dose-dependent reduction” and the “time to substantial reduction of GS” value ([1]; MM.1S, 100 μM lenalidomide, FIG. 8) is given as at most 4 h. The “lenalidomide-induced downregulation of GS upon depletion of CRBN by shRNA” value ([1]; MM.1S, 24 hours, FIG. 12) was “blunted”, the “total cellular pool of ubiquitin conjugates” value ([3]; 30 μM) was “essentially no effect” and the GS ubiquitin conjugates [3] was “increase”.

For `Nc1cccc2c1C(=O)N(C1CCC(=O)NC1=O)C2=O` (stereo not shown) [pomalidomide, 4-amino-thalidomide], the Cmax [5] is given as about 275 nM, the “steady-state level of GS” value ([1]; 24 hours) is given as “marked, dose-dependent reduction” and the “concentration giving maximal suppression of GS” value ([1]; MM.1S, IMiDs added immediately after changing the growth medium, FIG. 7) is given as 0.1 µM. The “PARP cleavage in GS-depleted cells” value [6] was “further accentuated” and the “PARP cleavage in non-depleted cells” value [6] was “no effect”.

With `Nc1ccc2c(c1)C(=O)N(C1CCC(=O)NC1=O)C2=O` (stereo not shown) [5-amino-thalidomide] the “effect on GS protein levels” value ([1]; MM.1S, FIG. 7) was “no effect”.
